Laboratory results reported in ChEMBL document CHEMBL5113415, “Synthesis of 10,10'-bis(trifluoromethyl) marinopyrrole A derivatives and evaluation of their antiviral activities in vitro” (Eur J Med Chem, 2022).

Tests used:
[1] = Selectivity index, ratio of CC50 for […] to IC50 for YFV-17D infected in […]; format: toxicity, cell-based; settings: read-out: Ratio CC50/IC50
Coxsackievirus = assay: Antiviral activity against CA6 infected in human RD cells incubated for 3 days by CellTiter 96 luminescent cell viability assay; format: functional, organism-based; settings: A6, RD, 72 h
[2] = Cytotoxicity against human RD cells infected with EV71 incubated for 3 days by CellTiter 96 luminescent cell viability assay; format: toxicity, cell-based; settings: time 3 day
[3] = test system: Japanese encephalitis virus; assay: Antiviral activity against JEV-SA14 infected in […] incubated for 7 days by CellTiter 96 luminescent cell viability assay; format: functional, organism-based; settings: 168 h
[4] = Selectivity index, ratio of CC50 for […] to IC50 for DENV-NGC infected in […]; format: toxicity, cell-based; settings: read-out: Ratio CC50/IC50
[5] = Selectivity index, ratio of CC50 for […] to IC50 for ZIKV-SMGC-1 infected in […]; format: toxicity, cell-based; settings: read-out: Ratio CC50/IC50
[6] = Selectivity index, ratio of CC50 for human RD cells to IC50 for CA16 infected in human RD cells; format: toxicity, cell-based; settings: read-out: Ratio CC50/IC50
[7] = Selectivity index, ratio of CC50 for human RD cells to IC50 for CA6 infected in human RD cells; format: toxicity, cell-based; settings: read-out: Ratio CC50/IC50
[8] = Cytotoxicity against […] infected with YFV-17D incubated for 7 days by CellTiter 96 luminescent cell viability assay; format: toxicity, cell-based; settings: time 7 day
[9] = Selectivity index, ratio of CC50 for human RD cells to IC50 for EV71 infected in human RD cells; format: toxicity, cell-based; settings: read-out: Ratio CC50/IC50
[10] = Cytotoxicity against […] infected with DENV-NGC-1 incubated for 7 days by CellTiter 96 luminescent cell viability assay; format: toxicity, cell-based; settings: time 7 day
Enterovirus A71 = assay: Antiviral activity against EV71 infected in human RD cells incubated for 3 days by CellTiter 96 luminescent cell viability assay; format: functional, organism-based; settings: Enterovirus A, 71, RD, 72 h
Zika virus = assay: Antiviral activity against ZIKV-SMGC-1 infected in […] incubated for 7 days by CellTiter 96 luminescent cell viability assay; format: functional, organism-based; settings: SMGC-1, BHK, 168 h
[11] = Cytotoxicity against […] infected with ZIKV-SMGC-1 incubated for 7 days by CellTiter 96 luminescent cell viability assay; format: toxicity, cell-based; settings: time 7 day
Yellow fever virus = assay: Antiviral activity against YFV-17D infected in […] incubated for 7 days by CellTiter 96 luminescent cell viability assay; format: functional, organism-based; settings: 168 h
Dengue virus = assay: Antiviral activity against DENV-NGC-1 infected in […] incubated for 7 days by CellTiter 96 luminescent cell viability assay; format: functional, organism-based; settings: NGC-1, BHK, 168 h
[12] = Selectivity index, ratio of CC50 for […] to IC50 for JEV-SA14 infected in […]; format: toxicity, cell-based; settings: read-out: Ratio CC50/IC50
[13] = Cytotoxicity against human RD cells infected with CA6 incubated for 3 days by CellTiter 96 luminescent cell viability assay; format: toxicity, cell-based; settings: time 3 day
[14] = Cytotoxicity against human RD cells infected with CA16 incubated for 3 days by CellTiter 96 luminescent cell viability assay; format: toxicity, cell-based; settings: time 3 day
[15] = Cytotoxicity against […] infected with JEV-SA14 incubated for 7 days by CellTiter 96 luminescent cell viability assay; format: toxicity, cell-based; settings: time 7 day
Coxsackievirus A16 = assay: Antiviral activity against CA16 infected in human RD cells incubated for 3 days by CellTiter 96 luminescent cell viability assay; format: functional, organism-based; settings: Enterovirus A, 72 h

Q: With `C#C[C@@]1(O)[C@H](O)[C@@H](CO)O[C@H]1n1ccc2c(N)ncnc21` as the compound, how does the selectivity ratio [1] read?
A: The selectivity ratio was over 10.5.

Q: What about the IC50 (Coxsackievirus) of the same compound?
A: The IC50 was 920 nM.

Q: And the CC50 at 72 h [2]?
A: The CC50 at 72 h was over 20000 nM.

Q: And the IC50 [3]?
A: Its IC50 is 3090 nM.

Q: And the selectivity ratio [4]?
A: Its selectivity ratio is over 3.96.

Q: What about the selectivity ratio [5] of the same compound?
A: The selectivity ratio was over 12.3.

Q: What about the selectivity ratio [6] of the same compound?
A: Its selectivity ratio is over 28.2.

Q: What about the selectivity ratio [7] of the same compound?
A: Its selectivity ratio is over 21.7.

Q: And the CC50 at 168 h [8]?
A: The CC50 at 168 h was over 20000 nM.

Q: What about the selectivity ratio [9] of the same compound?
A: Its selectivity ratio is over 40.

Q: What about the CC50 at 168 h [10] of the same compound?
A: The CC50 at 168 h was over 20000 nM.

Q: What about the IC50 (Enterovirus A71) of the same compound?
A: Its IC50 is 500 nM.

Q: And the IC50 (Zika virus)?
A: Its IC50 is 1620 nM.

Q: And the CC50 at 168 h [11]?
A: The CC50 at 168 h was over 20000 nM.

Q: What about the IC50 (Yellow fever virus) of the same compound?
A: The IC50 was 1910 nM.

Q: What about the IC50 (Dengue virus) of the same compound?
A: Its IC50 is 5050 nM.

Q: What about the selectivity ratio [12] of the same compound?
A: The selectivity ratio was over 6.47.

Q: What about the CC50 at 72 h [13] of the same compound?
A: Its CC50 at 72 h is over 20000 nM.

Q: What about the CC50 at 72 h [14] of the same compound?
A: The CC50 at 72 h was over 20000 nM.

Q: What about the CC50 at 168 h [15] of the same compound?
A: The CC50 at 168 h was over 20000 nM.

Q: And the IC50 (Coxsackievirus A16)?
A: Its IC50 is 710 nM.

Q: With `Cn1nnnc1Sc1c(Cl)cc(C(=O)c2ccc(C(F)(F)F)cc2O)n1-c1c(C(=O)c2ccc(C(F)(F)F)cc2O)[nH]c(Cl)c1Cl` as the compound, how does the selectivity ratio [1] read?
A: Its selectivity ratio is 1.01.

Q: And the IC50 (Coxsackievirus)?
A: Its IC50 is 2750 nM.

Q: What about the IC50 [3] of the same compound?
A: The IC50 was 2790 nM.

Q: And the selectivity ratio [4]?
A: Its selectivity ratio is 1.79.

Q: What about the selectivity ratio [5] of the same compound?
A: Its selectivity ratio is 2.52.

Q: What about the selectivity ratio [6] of the same compound?
A: The selectivity ratio was 4.48.

Q: And the selectivity ratio [7]?
A: Its selectivity ratio is 1.56.

Q: What about the CC50 at 168 h [8] of the same compound?
A: The CC50 at 168 h was 2490 nM.

Q: What about the CC50 at 168 h [10] of the same compound?
A: The CC50 at 168 h was 3120 nM.

Q: And the IC50 (Zika virus)?
A: Its IC50 is 1240 nM.

Q: And the CC50 at 168 h [11]?
A: Its CC50 at 168 h is 3120 nM.

Q: And the IC50 (Yellow fever virus)?
A: Its IC50 is 2470 nM.

Q: And the IC50 (Dengue virus)?
A: The IC50 was 1740 nM.

Q: And the selectivity ratio [12]?
A: The selectivity ratio was 0.89.

Q: And the CC50 at 72 h [13]?
A: Its CC50 at 72 h is 4290 nM.

Q: What about the CC50 at 72 h [14] of the same compound?
A: Its CC50 at 72 h is 4300 nM.

Q: What about the CC50 at 168 h [15] of the same compound?
A: The CC50 at 168 h was 2480 nM.

Q: What about the IC50 (Coxsackievirus A16) of the same compound?
A: Its IC50 is 960 nM.

Q: With `O=C(c1ccc(C(F)(F)F)cc1O)c1[nH]c(Cl)c(Cl)c1-n1c(C(=O)c2ccc(C(F)(F)F)cc2O)cc(Cl)c1SCc1ccccn1` as the compound, how does the IC50 (Coxsackievirus) read?
A: Its IC50 is 190 nM.

Q: And the CC50 at 72 h [2]?
A: Its CC50 at 72 h is 240 nM.

Q: And the IC50 [3]?
A: The IC50 was 420 nM.

Q: And the selectivity ratio [6]?
A: The selectivity ratio was 11.5.

Q: And the selectivity ratio [7]?
A: Its selectivity ratio is 1.8.

Q: What about the selectivity ratio [9] of the same compound?
A: Its selectivity ratio is 1.43.

Q: What about the IC50 (Enterovirus A71) of the same compound?
A: The IC50 was 170 nM.

Q: And the CC50 at 168 h [11]?
A: The CC50 at 168 h was 320 nM.

Q: What about the selectivity ratio [12] of the same compound?
A: Its selectivity ratio is 0.61.

Q: What about the CC50 at 72 h [13] of the same compound?
A: The CC50 at 72 h was 340 nM.

Q: What about the CC50 at 72 h [14] of the same compound?
A: Its CC50 at 72 h is 340 nM.

Q: And the CC50 at 168 h [15]?
A: The CC50 at 168 h was 260 nM.

Q: What about the IC50 (Coxsackievirus A16) of the same compound?
A: Its IC50 is 30 nM.

Q: Which IC50 (Coxsackievirus) does the source give for `O=C(c1ccc(C(F)(F)F)cc1O)c1[nH]c(Cl)c(Cl)c1-n1c(C(=O)c2ccc(C(F)(F)F)cc2O)cc(Cl)c1Sc1ncccn1` here?
A: Its IC50 is 290 nM.

Q: And the CC50 at 72 h [2]?
A: Its CC50 at 72 h is 320 nM.

Q: What about the selectivity ratio [6] of the same compound?
A: The selectivity ratio was 17.8.

Q: And the selectivity ratio [7]?
A: The selectivity ratio was 1.84.

Q: What about the selectivity ratio [9] of the same compound?
A: The selectivity ratio was 3.56.

Q: And the IC50 (Enterovirus A71)?
A: The IC50 was 90 nM.

Q: And the CC50 at 72 h [13]?
A: Its CC50 at 72 h is 530 nM.

Q: And the CC50 at 72 h [14]?
A: The CC50 at 72 h was 530 nM.

Q: And the IC50 (Coxsackievirus A16)?
A: The IC50 was 30 nM.

Q: What does the source list for `O=C(c1ccc(C(F)(F)F)cc1O)c1[nH]c(Cl)c(Cl)c1-n1c(C(=O)c2ccc(C(F)(F)F)cc2O)cc(Cl)c1Sc1nc2ccccc2o1`?
A: IC50 (Coxsackievirus): 490 nM; CC50 at 72 h [2]: 920 nM; IC50 [3]: 1250 nM; selectivity ratio [4]: 5; selectivity ratio [5]: 5; selectivity ratio [6]: 12; selectivity ratio [7]: 3.18; selectivity ratio [9]: 3.07; CC50 at 168 h [10]: 1800 nM; IC50 (Enterovirus A71): 300 nM; IC50 (Zika virus): 360 nM; IC50 (Dengue virus): 360 nM; selectivity ratio [12]: 1.44; CC50 at 72 h [13]: 1560 nM; CC50 at 72 h [14]: 1560 nM; CC50 at 168 h [15]: 1800 nM; IC50 (Coxsackievirus A16): 130 nM

Q: With `O=C(c1ccc(C(F)(F)F)cc1O)c1[nH]c(Cl)c(Cl)c1-n1c(C(=O)c2ccc(C(F)(F)F)cc2O)cc(Cl)c1Sc1cccs1` as the compound, how does the selectivity ratio [1] read?
A: The selectivity ratio was 4.6.

Q: And the IC50 (Coxsackievirus)?
A: The IC50 was 30 nM.

Q: What about the CC50 at 72 h [2] of the same compound?
A: The CC50 at 72 h was 80 nM.

Q: What about the IC50 [3] of the same compound?
A: The IC50 was 50 nM.

Q: What about the selectivity ratio [6] of the same compound?
A: Its selectivity ratio is 12.2.

Q: And the selectivity ratio [7]?
A: The selectivity ratio was 3.67.

Q: What about the CC50 at 168 h [8] of the same compound?
A: The CC50 at 168 h was 230 nM.

Q: What about the selectivity ratio [9] of the same compound?
A: Its selectivity ratio is 4.

Q: And the IC50 (Enterovirus A71)?
A: Its IC50 is 20 nM.

Q: And the IC50 (Yellow fever virus)?
A: The IC50 was 50 nM.

Q: What about the selectivity ratio [12] of the same compound?
A: Its selectivity ratio is 4.59.

Q: What about the CC50 at 72 h [13] of the same compound?
A: Its CC50 at 72 h is 110 nM.

Q: What about the CC50 at 72 h [14] of the same compound?
A: The CC50 at 72 h was 110 nM.

Q: And the CC50 at 168 h [15]?
A: The CC50 at 168 h was 230 nM.

Q: And the IC50 (Coxsackievirus A16)?
A: Its IC50 is 10 nM.
